Among the test systems are SK-OV-3 ovarian; NCI-H522 lung; UO-31 renal; NCI-H460 lung; MOLT-4 leukemia; HCC-2998 colon; SR leukemia; SK-MEL-5 melanoma; MDA-MB-231 breast; EKVX NSCLC.
Holding throughout (experiment): growth of human tumour cells (NCI), 48 h

The structures appear in SMILES notation. Several values for one entry are separate records, joined by “and”; a condition that tells them apart may be missing. Equal values may be shown once.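 Cells were grown in 96-well plates and exposed to each compound for 48 hours at five concentrations; endpoints were interpolated linearly between bracketing concentrations, or set to the highest concentration if not reached. Abbreviation: GI50, concentration required for 50% inhibition of growth. TGI: total growth inhibition.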 A value given as a limit tells only on which side of the number the result lay.

For `C=CC(=O)N1CCN(c2nc(OC[C@@H]3CCCN3C)nc3c(F)c(-c4nc(N)cc(C)c4C(F)(F)F)c(Cl)cc23)[C@@H](C)C1`, the GI50 in the test with SK-OV-3 ovarian was 2.62 µM; in the test on NCI-H522 lung, 1.21 µM; in the test on UO-31 renal, 1.92 µM; with NCI-H460 lung, 2.29 µM; in the test on MOLT-4 leukemia, 1.91 µM; with HCC-2998 colon, 1.25 µM. Further, the GI50 in the test with SR leukemia is 1.77 µM; with SK-MEL-5 melanoma it was 1.74 µM; with MDA-MB-231 breast it was 1.74 µM; in the test with EKVX NSCLC it was 1.98 µM. Besides, the TGI was 6.42 µM in the test with SK-OV-3 ovarian; 2.75 µM in the test with NCI-H522 lung; 5.01 µM in the test with UO-31 renal; 5.39 µM with NCI-H460 lung; 7.63 µM in the test on MOLT-4 leukemia; 2.57 µM with HCC-2998 colon. The TGI in the test on SR leukemia worked out at 4.54 µM; in the test with SK-MEL-5 melanoma, 3.33 µM; in the test on MDA-MB-231 breast, 3.27 µM; in the test with EKVX NSCLC it was 4.8 µM.

In the case of `Cc1nc2sc(C(=O)Nc3cccc4c3OCCO4)c(N)c2cc1C(C)O` (centres undefined), the GI50 is 5.75 µM with SK-OV-3 ovarian; 2.5 µM in the test on NCI-H522 lung; 7.3 µM in the test on UO-31 renal; 3.58 µM in the test on NCI-H460 lung; 4.97 µM in the test on MOLT-4 leukemia; 13.7 µM in the test on HCC-2998 colon. Further, the GI50 with SR leukemia was 1.18 µM; with SK-MEL-5 melanoma it was 4.82 µM; with MDA-MB-231 breast, 36.3 µM; in the test with EKVX NSCLC it was greater than 100 µM. Further, the TGI with SK-OV-3 ovarian, with NCI-H522 lung, in the test with UO-31 renal, in the test with NCI-H460 lung, in the test with MOLT-4 leukemia and in the test with HCC-2998 colon was greater than 100 µM each time. Besides, the TGI in the test with SR leukemia, in the test on SK-MEL-5 melanoma, in the test with MDA-MB-231 breast and in the test with EKVX NSCLC was greater than 100 µM in each case.

As to `CCOC(=O)c1ccc(N[C@@H]2c3cc4c(cc3C(c3cc(OC)c(O)c(OC)c3)[C@H]3C(=O)OCC32)OCO4)cc1` (some centres undefined), the GI50 is 0.37 µM in the test on SK-OV-3 ovarian; 0.395 µM and 1.28 µM with NCI-H522 lung; 0.394 µM in the test with UO-31 renal; 0.0385 µM with NCI-H460 lung; 0.0271 µM in the test with MOLT-4 leukemia; 0.868 µM in the test with HCC-2998 colon. Moreover, the GI50 in the test on SR leukemia was 0.0303 µM; in the test with SK-MEL-5 melanoma, 0.379 µM; in the test with EKVX NSCLC, 0.591 µM. In addition, the TGI is 5.16 µM in the test on SK-OV-3 ovarian; 4.98 µM in the test with NCI-H522 lung; 0.982 µM and 3.4 µM in the test with UO-31 renal; 1.33 µM with NCI-H460 lung; 0.219 µM and 0.158 µM in the test with MOLT-4 leukemia; 3.69 µM in the test on HCC-2998 colon. Also, the TGI is 0.32 µM and 0.742 µM with SR leukemia; 2.95 µM with SK-MEL-5 melanoma; 4.76 µM with MDA-MB-231 breast; 9.17 µM in the test with EKVX NSCLC.

Consider `CC(C)C[C@H](NC(=O)[C@@H](N)Cc1cccc2ccccc12)B(O)O`, for which the GI50 is 2 µM with SK-OV-3 ovarian; 0.739 µM in the test with UO-31 renal; 1.36 µM in the test with NCI-H460 lung; 0.21 µM with MOLT-4 leukemia; 0.021 µM in the test on HCC-2998 colon; 0.176 µM in the test on SK-MEL-5 melanoma. In addition, the GI50 in the test with MDA-MB-231 breast is 0.798 µM; in the test with EKVX NSCLC it was 1.23 µM and 0.167 µM. Besides, the TGI was 0.741 µM in the test with NCI-H522 lung; 0.0653 µM in the test with SR leukemia; 5 µM and 3.13 µM in the test with EKVX NSCLC.

Turning to `C[C@H]1CCC/C=C/[C@@H]2C[C@H](O)C[C@H]2[C@H](O)C(O)C(O)C(=O)O1` (some centres undefined), the GI50 in the test with SK-OV-3 ovarian is 3.75 µM; with NCI-H522 lung it was 2.26 µM; in the test on UO-31 renal it was 3.44 µM; in the test with NCI-H460 lung, 2.65 µM; in the test with MOLT-4 leukemia it was 0.906 µM; with HCC-2998 colon it was 2.15 µM. The GI50 with SR leukemia is 1.28 µM; with SK-MEL-5 melanoma, 0.362 µM; with MDA-MB-231 breast it was 2.5 µM; with EKVX NSCLC, 4.24 µM. Besides, the TGI in the test with SK-OV-3 ovarian is greater than 100 µM; in the test on NCI-H522 lung, 4.52 µM; in the test with UO-31 renal, greater than 76.1 µM; with NCI-H460 lung, greater than 100 µM; with MOLT-4 leukemia, 4.56 µM; in the test with HCC-2998 colon it was greater than 22.4 µM. In addition, the TGI was 3.66 µM in the test with SR leukemia, 4.84 µM with MDA-MB-231 breast and greater than 100 µM in the test with EKVX NSCLC.

For the compound `CCOC(=O)c1c(C)n(Cc2ccc(Cl)cc2Cl)c2c1cc(O)c1[nH]c(Cc3ccccc3)nc12`, the GI50 with SK-OV-3 ovarian is 16.3 µM; in the test on NCI-H522 lung, 3.2 µM; in the test with UO-31 renal, 3.75 µM; in the test on NCI-H460 lung it was 2.71 µM; with MOLT-4 leukemia, 2.3 µM; in the test with HCC-2998 colon it was 2.41 µM. The GI50 is 0.612 µM in the test with SR leukemia, 1.58 µM in the test on SK-MEL-5 melanoma, 3.61 µM with MDA-MB-231 breast and 9.49 µM with EKVX NSCLC. The TGI with SK-OV-3 ovarian came to 32 µM; in the test on NCI-H522 lung it was 15.6 µM; in the test with UO-31 renal, 16.6 µM; in the test on NCI-H460 lung, 6.65 µM; in the test with MOLT-4 leukemia, 5.27 µM; in the test on HCC-2998 colon, 5.23 µM. Also, the TGI in the test with SR leukemia amounted to 2.22 µM; in the test with SK-MEL-5 melanoma, 3.25 µM; in the test with MDA-MB-231 breast, 12.5 µM; with EKVX NSCLC, 22.3 µM.

`CC(=O)OC1C(C)OC(Oc2c(-c3ccc(O)cc3)oc3cc(O)cc(O)c3c2=O)C(O)C1OC(C)=O` (centres undefined): the GI50 is 56.4 µM in the test with SK-OV-3 ovarian; 18.5 µM in the test with NCI-H522 lung; 39.3 µM in the test on UO-31 renal; 32.5 µM with NCI-H460 lung; 26.7 µM with MOLT-4 leukemia; 21.9 µM with HCC-2998 colon. For the same compound, the GI50 in the test with SR leukemia was 25 µM; in the test on SK-MEL-5 melanoma it was 17.4 µM; in the test on MDA-MB-231 breast, 21.1 µM; with EKVX NSCLC, 54.2 µM. Moreover, the TGI is greater than 100 µM in the test with SK-OV-3 ovarian; 47.4 µM in the test with NCI-H522 lung; greater than 100 µM in the test with UO-31 renal; greater than 100 µM in the test with NCI-H460 lung; greater than 75 µM with MOLT-4 leukemia; 55.2 µM with HCC-2998 colon. Further, the TGI in the test with SR leukemia is 65 µM; in the test on SK-MEL-5 melanoma, 39.9 µM; in the test with MDA-MB-231 breast, 63.7 µM; in the test with EKVX NSCLC it was greater than 100 µM.

Consider `O=C1/C(=C/c2ccccc2)CN(C(=O)/C=C/c2ccccc2)C/C1=C\c1ccccc1`, for which the TGI was 57.9 µM with SK-OV-3 ovarian; 27.7 µM in the test with NCI-H522 lung; 20.6 µM in the test on UO-31 renal; 39.3 µM in the test with NCI-H460 lung; 35.4 µM in the test on MOLT-4 leukemia; 14.2 µM with HCC-2998 colon. In addition, the TGI in the test on SR leukemia is 4.64 µM; in the test on SK-MEL-5 melanoma it was greater than 35 µM; in the test with MDA-MB-231 breast it was 10.9 µM; in the test on EKVX NSCLC it was 50.1 µM.

(Values after PubChem BioAssay (NCI).)
